Three compounds from patent publication US7410971B2, “1,2-di(cyclic)substituted benzene compounds” (Eisai R&D Management Co., Ltd., priority 2003, dated 2008) can be followed below.

One experiment has as its system Jurkat cells. Nature of the experiment: Jurkat cell adhesion system (adhesion to immobilized human fibronectin, PMA-stimulated). The settings on record: concentration inhibiting by 50% the PMA-stimulated increase in number of adhered Jurkat cells on human fibronectin. Format: cell-based. On the procedure:
Evaluation of Compounds in Jurkat Cell Adhesion System
<Immobilization of Human Fibronectin in 96-Well Plate>
Human fibronectin (Becton Dickinson Biosciences) was diluted with phosphate-buffered saline (hereinafter abbreviated as PBS; Sigma) to 0.1-0.01 μg/ml, and the diluted solution was added to a 96-well plate (Becton Dickinson) at 50μ/well, and allowed to stand overnight at 4° C. On the following day, the supernatant was removed from the plate, and then PBS containing 1% bovine serum albumin (hereinafter abbreviated as BSA; Sigma) was added thereto at 100 μl/well and incubation was performed at 37° C. for 2 hours in a CO2 incubator (Hirasawa).
The supernatant was removed from each plate and Jurkat cells suspended in RPMI-1640 (Sigma) containing 1 mg/ml BSA were added at 80 μl/well for 2.5×10^5 cells/well. The compound diluted to different concentrations with RPMI-1640 containing 1 mg/ml BSA was immediately added at 10 μl/well, and then 100 nM phorbol myristate acetate (hereinafter abbreviated as PMA; Sigma) in RPMI-1640 containing 1 mg/ml BSA was added at 10 μl/well and the plate was incubated in a CO2 incubator at 37° C. for 45-60 minutes. The supernatant was removed from the plate and each well was washed several times with 100 μl/well of RPMI-1640, after which 50 mM citrate buffer (pH 5.0) containing 3.75 mM p-nitrophenol-N-acetyl-β-D-glucosaminide (Sigma) and 0.25% Triton X-100 (Sigma) were added at 60 μl/well, and the mixture was placed in a CO2 incubator and incubated at 37° C. for 45 minutes. After incubation, 50 mM glycine buffer (pH 10.4) containing 5 mM EDTA was added at 90 μl/well, and the absorbance at 405 nm was measured with an EL340 Automated Microplate Reader (BIO-TEK) to determine the adhered cell count. The concentration of each compound which inhibited the increase in the number of adhered cells by the PMA-stimulation by 50% was recorded as the IC50 (μM).

Experiment [1] deals with human peripheral blood neutrophils. Description: Human peripheral blood neutrophil adhesion system (adhesion to immobilized HUVEC, PMA-stimulated). Format: cell-based. Conditions: concentration inhibiting by 50% the PMA-stimulated increase in number of adhered BCECF-AM labeled neutrophils on HUVEC immobilized plate. On the procedure:
Evaluation of Compounds in Human Peripheral Blood Neutrophil Adhesion System
<Preparation of Human Peripheral Blood Neutrophils>
To a plastic centrifugation tube containing 100 units of heparin sodium (Shimizu Pharmaceutical) was added 25 ml of fresh blood sampled from a healthy human. After adding and mixing therewith 8 ml of physiological saline (Otsuka Pharmaceutical) containing 6% Dextran (Nacalai), the mixture was allowed to stand room temperature for 45 minutes for sedimentation of the erythrocytes. The resultant supernatant was transferred to another plastic centrifugation tube and combined with an equivalent volume of phosphate-buffered saline (hereinafter abbreviated as PBS; Sigma), and then centrifuged at 1600 rpm for 7 minutes at room temperature. The obtained hematocyte fraction was suspended in 4 ml of PBS, and the suspension was superposed on 4 ml of Ficoll-Paque™ PLUS (Amersham Biosciences). The resultant bilayer liquid was centrifuged at 2000 rpm for 30 minutes at room temperature, after which the supernatant was removed and the precipitate was suspended in 10 ml of PBS and centrifuged at 1200 rpm for 7 minutes, and the supernatant was removed. The resulting precipitate was suspended in 0.5 ml of PBS again, and then 10 ml of distilled water (Otsuka Pharmaceutical) was added, 0.5 ml of an aqueous solution containing 3 M NaCl was immediately added to restore isotonicity, the mixture was centrifuged at 1200 rpm for 7 minutes, and the obtained precipitate was suspended in PBS containing 1 mg/ml bovine serum albumin (hereinafter abbreviated as BSA; Sigma) again and stored in ice until being used for the experiment.
<Fluorescent Labeling of Human Peripheral Blood Neutrophils>
The obtained neutrophils were suspended in PBS containing 1 mg/ml BSA at 2×10^7 cells/ml. BCECF-AM (Dojin) was added to a final concentration of 5 μM, and the mixture was incubated at 37° C. for 45 minutes. It was then rinsed twice with PBS containing 1 mg/ml BSA by centrifugation, suspended again in PBS containing 1 mg/ml BSA at 5×10^7 cells/ml, and stored in ice until use.
<Preparation of HUVEC Immobilized Plate>
Human umbilical vein endothelial cells (hereinafter abbreviated as HUVEC) were suspended in MCDB131 medium (Chlorella Industries) containing 10% fetal calf serum and 30 μg/ml endothelial cell growth supplement (Becton Dickinson Bioscience). The suspension was added at 7.5×10^3 cells/well to a 96-well plate (Iwaki) immobilized with type I collagen, and cultured for 3 days in a CO2 incubator (Hirasawa). Upon confirming confluency of the cells, the supernatant was discarded, the plate was rinsed twice with PBS, and then PBS containing 0.1% glutaraldehyde (Kanto Kagaku) was added at 100 μl/well and the HUVECs were immobilized for 5 minutes. The supernatant was discarded and the plate was washed twice with PBS, and then PBS was added at 100 μl/well and the mixture was stored at 4° C. until use.
To 6.5 ml of RPMI-1640 medium (Sigma) containing 1 mg/ml of BSA were added 0.5 ml of a suspension of BCECF-AM labeled neutrophils at 5×10^7/ml stored in ice, which was mixed, and the mixture was added at 80 μl/well to a HUVEC immobilized plate. […] The supernatant was removed from the plate, which was then washed several times with RPMI-1640 at 100 μl/well, and then PBS containing 0.1% NP-40 (Calbiochem) was added thereto at 100 μl/well and the fluorescent intensity was measured with an ARVO™SX 1420 multi label counter (Wallac) to determine the number of adhered cells. […]

Experiment [2] concerns colon-infiltrating neutrophils (myeloperoxidase enzyme activity). Description: Oxazolone-induced colon neutrophil infiltration model. In kind it is in vivo, Balb/c mice. The settings on record: Mus musculus, po, 30 mg/kg orally 30 minutes prior to intrarectal oxazolone, colon myeloperoxidase activity 4 hours after, vs oxazolone control group, read-out: Inhibitory rate (%). On the procedure:
Evaluation of Compounds in Oxazolone-Induced Colon Neutrophil Infiltration Model
<Sensitization with Oxazolone>
Five- to six-week-old male Balb/c mice (Charles River Japan) were shaven at the abdomen to an approximately 2 cm square area. A 100% ethanol solution containing 3% 4-ethoxymethylene-2-phenyl-2-oxazolin-5-one (hereinafter referred to as “oxazolone”; Sigma) was applied at 150 μl onto the abdomen of each mouse.
<Preparation of Emulsion Containing Oxazolone>
Distilled water (Otsuka Pharmaceutical) was added in an equivalent volume to 100% peanut oil (Kanto Kagaku) containing 1% oxazolone, and the components were vigorously mixed with a glass syringe (Top Co.), to prepare an emulsion containing 0.5% oxazolone.
<Induction with Oxazolone>
The mice were fasted on the 3rd day after oxazolone sensitization, and were injected with 100 μl of the emulsion containing 0.5% oxazolone prepared in the way described above intrarectally at a site approximately 3 cm from the anus under ether anesthesia on the 4th day.
<Colon-Infiltrating Neutrophil Assay>
Each compound was suspended or dissolved in an aqueous solution containing 0.5% methyl cellulose (Wako), and orally administered at 30 mg/kg 30 minutes prior to the intrarectal injection of oxazolone emulsion. Four hours after the intrarectal injection of oxazolone, mice were sacrificed by cervical dislocation, and colons were extirpated, dissected in the longitudinal direction, washed with physiological saline, and transferred to ice-cooled plastic centrifugation tubes. After adding 1 ml of 50 mM potassium phosphate buffer (hereinafter abbreviated as KPB) (pH 6.0) to the tube, and the tissue were homogenized with PHYSCOTRON (Microtec Nition Co., Ltd.), 2 ml of 50 mM KPB (pH 6.0) was added and the mixture was centrifuged at 3000 rpm, 4° C. for 10 minutes and the supernatant was removed. To the resultant precipitate was added 1 ml of 50 mM KPB (pH 6.0) containing 0.5% hexadecyltrimethyl-ammonium bromide (Sigma), and freeze-thawed 3 to 5 times using liquid nitrogen and hot water, centrifuged at 3000 rpm, 4° C. for 10 minutes to yield a supernatant. The myeloperoxidase enzyme activity in the supernatant was assayed in the following manner. Specifically, to 10 μl of the obtained supernatant was added 200 μl of 50 mM KPB (pH6.0) containing 0.017% o-dianisidine (Sigma) and 0.0005% hydrogen peroxide (Wako), incubated at 37° C., and the change in absorbance at 450 nm was continuously measured for 1 minute using an EL340 Automated Microplate Reader (BIO-TEK) in kinetic mode. The units were the rate of change in absorbance per minute (mO.D./min.). With regard to the effect of each compound, the inhibitory rate (%) with respect to the oxazolone control group, i.e. the oxazolone-injected/compound-free group, was shown in the table 3.

Take `CCCCN1CCN(c2ccc(N3CCC(OC)CC3)cc2C2=CCC(C(C)(C)C)CC2)CC1.Cl` (racemic) [Example 7, 1-Butyl-4-[2-(4-t-butylcyclohex-1-enyl)-4-(4-methoxypiperidin-1-yl)phenyl]piperazine hydrochloride]: the half-maximal inhibitory concentration (IC50) (commonly the concentration needed to halve the response being measured) amounted to 2500 nM with Jurkat cells and 9.8 µM in experiment [1]. Also, the inhibition in vivo at 30 mg/kg in experiment [2] worked out at 37%.

`CCCCN1CCN(c2ccccc2C2CC(C)(C)CC(C)(C)C2)CC1.Cl` [Example 8, 1-Butyl-4-[2-(3,3,5,5-tetramethylcyclohexyl)phenyl]piperazine hydrochloride]: the IC50 in the experiment with Jurkat cells was 2200 nM; in experiment [1], 22.5 µM. Further, the inhibition in vivo at 30 mg/kg in experiment [2] was determined as 22%.

On to `CCCCN1CCN(c2ccccc2C2CCCCC2)CC1.Cl` [Example 14, 1-Butyl-4-(2-cyclohexylphenyl)piperazine hydrochloride], for which the half-inhibitory concentration (IC50) with Jurkat cells was found to be 4900 nM; in experiment [1], 19.7 µM. Moreover, the inhibition in vivo at 30 mg/kg in experiment [2] amounted to 64%.
